No end group written: not given here.
Tests used:
[1] = tested on: NK-cell cytotoxicity against K562 target cells; assay type: cell-based, human
Description: The ability of specific albumin fragments to impact NK-cell cytotoxicity was also evaluated. In these experiments, synthetic peptides corresponding to albumin fragments (P3028, P3026, and P3027) (SEQ ID NOs: 185, 183, and 184, respectively) were prepared and the amount of lysis of K562 target cells was assessed (see Example 4).

[2] = tested on: K562 target cells; assay: NK-cell cytotoxicity (NKTEST); assay type: cell-based, human; conditions: 10 ug/ml, effector:target 40:1, four donors
Description: The NK-cell cytotoxic activity of blood mononuclear cells from four healthy donors was tested. Mononuclear cells were separated by standard Ficoll-paque Plus (Pharmacia AB, Sweden) density gradient centrifugation from heparinized blood obtained from healthy donors. NK cell cytotoxic activity of the mononuclear cells was then tested using a commercial kit (NKTEST, Orpegen Pharma GmblI, Heidelberg, Germany) following the manufacturers protocol. Briefly, the kit contains cryopreserved, NK-sensitive target cells (K562) labeled with a lipophilic green fluorescent membrane dye, which enables discrimination of effector and target cells. After incubation with effector cells, killed target cells are identified by a DNA-stain, which penetrates and specifically stain the nuclei of dead target cells. This way the percentage of killed targets can be determined by flow cytometry. The mononuclear cells were preincubated for 30 min at 37° C. with the indicated peptides (peptides have been described previously) at 10 ug/ml. Target cells were then added, giving an effector:target ratio of 40:1, and the cell mixture incubated at 37° C. for 3-4 hours. Samples were analysed on a FACSCalibur (BD Biosciences, San Jose, Calif.).

[3] = molecular target: P3028 (Homo sapiens, UniProt P02768); assay: Chip ELISA: binding of His-tag labeled P3028 to cyclic peptides, positional scan
Description: In order to identify cyclic peptides that bind to P3028, all possible variants of di- and tripeptides were synthesized on chips and the binding of the His-tag labeled P 3028 was analyzed using the ELISA-technique. Based on the identified binding motifs, looped 6-meres were produced and tested. […] Positional scans were performed in each position of the lead cyclic peptide was replaced with each of the other 19 L-amino acids. Binding of each of the substituted peptides was tested, and peptide sequences with even better binding capacity than that of the lead peptide were identified.

[4] = tested on: PBMCs; assay: IL-2 induced proliferation of PBMCs, ex vivo model (3H-thymidine); assay type: cell-based, human; conditions: PBMCs from healthy control samples, 7 days
Description: 100 μl of RPMI1640 supplemented with 200 IU/ml penicillin, […] streptomycin, 4 mM L-glutamine (all from Sigma Chemical Co. MO, US) and 20% heat-inactivated human serum (autologous or from cancer patients) were added to uncoated, HSA or HSA/IgG coated tissue culture microtiter plates. PBMC, isolated from healthy individuals or patients with metastatic renal cell carcinoma, were diluted in RPMI/2% HSA at a concentration of 5×10^5/ml and 100 μl were added to the microtiter wells. Interleukin-2 (IL-2, Proleukin, Chiron, NL), at a final concentration of 120 IU/well, was added to some wells. Cells were cultured for 7 days in a humidified, 5% CO2-atmosphere at 37° C. Proliferation was assayed by incorporation of 1.6 μCi/well of [^3H]-thymidine (Amersham Int., UK) during the last 18 hrs. Mean values of dpm (disintegrations per minute) of triplicates were used for the calculations.
Cultures for IL-2 induced proliferation was set up with PBMC from healthy donors and autologous serum as described above with the exception that PBMC were first pre-incubated for 30 min at room temperature with the indicated albumin peptides at a concentration of 10 μg/ml. […]
The effect of different peptides on IL-2 induced proliferation was analyzed in the human ex vivo model, using PBMCs from healthy control samples. […] Proliferation was measured as incorporation of ^3H-thymidine during the final 18 hours. […]

## ELFEQLGEYKFQNALLVR [P3027]
[1]
  effect on NK-cell cytotoxicity: Inhibition was not seen
[2]
  effect on NK-cell cytotoxicity (percent specific lysis): Inhibition was not seen

## CLRLIVMCG [SEQ ID NO: 266]
[3]
  binding to P3028, positional scan: highest affinity

## CLRLNVFCG [SEQ ID NO: 265]
[3]
  binding to P3028, positional scan: highest affinity

## KVPQVSTPTLVEVSR (listed as Homo sapiens) [P3029]
[4]
  effect on IL-2 induced proliferation: none of the other peptides identified by their binding to the artificial cell surface had any inhibitory activity

From US9657059B2, “Immune system modulators” (Canimguide Therapeutics AB, priority 2013, dated 2017)
